Results reported in patent US8895520B2, “Method for treating a human patent suffering from Myeloid Neoplasias using 5-aminoimidazole-4-carboxamide” (Universite Nice Sophia Antipolis, priority 2011, dated 2014).

Assays:
[1] = tested on: AZA-S SKM1 cells; assay: Autophagy western blot (LC3-I/LC3-II, P-S6) in AZA-S SKM1 cells; format: cell-based, human; conditions: 1 μM AZA
Experimental: (§1) FIG. 4 illustrates increased basal autophagy and decreased AZA-mediated autophagy in AZA-R cells. In this experiment, cells were incubated for increasing times with 1 μM AZA. LC3-I and LC3-II, S6 ribosomal protein (P-S6), and its phosphorylated form were visualized by western blot.
(§2) For the Western Blot analysis, cells were first stimulated by 1 μM Azacitidine for the indicated times, then cells were harvested and lysed in buffer containing 1% Triton X-100 and supplemented with protease and phosphatase inhibitors (Roche Diagnostics) as previously described. Lysates were pelleted, and 50 μg of protein were analyzed by SDS-PAGE.

[2] = tested on: AZA-S SKM1 cells; assay: Cathepsin B activity assay in AZA-S SKM1 cells; format: cell-based, human; conditions: Azacitidine
Experimental: (§3) For this experiment cells were incubated for increasing times with 1 μM AZA. Cell extracts were prepared and Cathepsin B activity determined in quadruplicatesusing Z-RR-AMC as substrates. […] In this experiment cells were incubated for 24 h with 1 μM Azacitidine or 1 mM ACA. Cell extracts were prepared and Cathepsin B activity was determined in quadruplicates using Z-RR-AMC as substrate. For these Cathepsin B assays, 10^6 cells/mL were incubated for different times at 37° C. with 1 μM Azacitine. After stimulation, cells were lysed for 30 min at 4° C. Cellular extracts were incubated in 96-well plates with […] (Cathepsin B) as substrate. This experiment was performed in quadruplicates and repeated at least three times.

[3] = tested on: AZA-R SKM1 cells; assay: Caspase 3 / caspase 9 activity assay in AZA-R SKM1 cells; format: cell-based, human
Experimental: (§4) FIG. 1 illustrates AZA-induced apoptosis in AZA-SKM1 cells as assessed by caspase 3 assay. In this figure, cells were incubated for different times with 1 μM Azacitidine. Caspase activities were determined in quadruplicates using 0.2 mM Ac-DEVD-AMC as substrate.
(§5) FIG. 2 illustrates AZA-induced apoptosis in AZA-SKM1 cells as assessed by caspase 9 assay. In this figure, cells were incubated for different times with 1 μM Azacitidine. Caspase activities were determined in quadruplicates using 0.2 mM Ac-LEHD-AMC as substrate.
(§6) In this experiment, cells were incubated for 24 h with 1 μM Azacitidine or 1 mM ACA. Cell extracts were then prepared and caspase activities were determined in quadruplicates using 0.2 mM Ac-DEVD-AMC as substrate.
(§7) For these caspase assays, 10^6 cells/mL were incubated for different times at 37° C. with 1 μM Azacitidine. After stimulation, cells were lysed for 30 min at 4° C. Cellular extracts were incubated in 96-well plates with either Ac-DEVD-AMC (caspase 3) or Ac-LEHD-AMC (caspase 9) as substrates. Each experiment was performed in quadruplicates and repeated at least three times.

[4] = tested on: AZA-S SKM1 cells; assay: XTT cell metabolism assay in AZA-S SKM1 cells; format: cell-based, human; conditions: for cell metabolism (XTT) / inhibitory effect on cell metabolism in presence of Z-VAD-fmk: 24 h; for inhibitory effect on cell metabolism in presence of Z-VAD-fmk: 50 μM Z-VAD-fmk
Experimental: (§8) FIGS. 6 and 7 illustrate respectively the efficiency of acadesine in SKM1-S and SKM1-R cells. In FIG. 6, AZA-S SKM1 cells were incubated for 24 h with increased doses of ACA (acadesine). In FIG. 7, AZA-R SKM1 cells were incubated for 24 h with increased doses of ACA. Cell metabolism was then assessed by using the XTT assay in both assays. Results represent the mean+/−SEM of three independent experiments made in quadruplicates.
FIGS. 10 and 11 illustrate the efficacy of acadesine in AZA-S and AZA-R cells. […] For this experiment, AZA-S SKM1 cells were incubated for 24 h with 1 μM Azacitidine or 1 mM Acadesine in either the presence or the absence of 50 μM Z-VAD-fmk. Cell metabolism was assessed using the XTT assay. Results represent the mean+/−SEM of three independent experiments achieved in quadruplicates. […] For this experiment, AZA-R SKM1 cells were incubated for 24 h with 1 μM Azacitidine or 1 mM Acadesine in either the presence or the absence of 50 μM Z-VAD-fmk. Cell metabolism was assessed using the XTT assay. Results represent the mean+/−SEM of three independent experiments achieved in quadruplicates.
For the cell metabolism assessment, 15×10^3 cells were incubated in a 96-well plate for different times with various concentrations of Azacitidine in a final volume of 100 μL. After 16, 24 or 48 h, 50 μL of XTT reagent was added to each well. The absorbance of the formazan product, reflecting cell metabolism, was measured at […]. Each assay was performed in quadruplicate.
The cell metabolism assessment was made in an identical manner as described in example 3.

[5] = tested on: AZA-R SKM1 cells; assay: Cathepsin B activity assay in AZA-R SKM1 cells; format: cell-based, human
Experimental: as §3

[6] = tested on: AZA-R SKM1 cells; assay: PARP cleavage by western blot in AZA-R SKM1 cells; format: cell-based, human; conditions: 1 μM Azacitidine, 16 h
Experimental: as §2, with “In this experiment, PARP cleavage was assessed by western-blot on cell extracts prepared from AZA-S and AZA-R cells incubated for 16 h with 1 μM Azacitidine. For” for “For”

[7] = tested on: AZA-S SKM1 cells; assay: Caspase 3 / caspase 9 activity assay in AZA-S SKM1 cells; format: cell-based, human
Experimental: as §4, §5, §6, §7

[8] = tested on: AZA-R SKM1 cells; assay: Autophagy western blot (LC3-I/LC3-II, P-S6) in AZA-R SKM1 cells; format: cell-based, human; conditions: 1 μM AZA
Experimental: as §1, §2

[9] = tested on: high-risk Myelodysplasic syndrome (MDS) or acute myeloid leukemia (AML) patients; conditions: cited from earlier work
[10] = tested on: bone marrow cells of 7 AZA-sensitive patients; assay: XTT cell metabolism assay on bone marrow cells of AZA-sensitive patients; format: cell-based, human; conditions: bone marrow cells of AZA-sensitive patients (n=7), 1 mM Acadesine
Experimental: For this experiment, bone marrow cells of 7 AZA-sensitive patients were treated with 1 μM Azacitidine or 1 mM Acadesine. Cell metabolism was assessed using the XTT assay. Results represent the mean+/−SEM of three independent experiments achieved in quadruplicates.
(§9) In the following examples, bone marrow samples were collected from 15 patients treated by Azacitidine. […] The diagnosis of MDS or AML was based on standard WHO criteria (Vardiman et al., Blood 2009). Patients were to receive Azacitidine at the FDA/EMEA approved schedule (75 mg/m^2/d, 7 d/4 weeks). Patients having received one or more than one cycle of Azacitidine and who had bone marrow evaluation after at least four cycles, or who died or progressed before completion of four cycles were considered evaluable (the last two groups were considered as treatment failures). Responses were scored according to IWG 2006 criteria for MDS and to Cheson et al. (JCO 2003) for AML.
(§10) Acadesine efficiency was next investigated on fifteen primary cell samples from MDS or AML patients treated or not by AZA. Samples from seven Azacitidine sensitive patients (FIG. 12) and eight samples from Azacitidine resistant patients were included in this experiment and analyzed by the XTT assay (FIG. 13). As previously described for AZA-R SKM1 cells, Acadesine was more efficient to kill cells from Azacitidine resistant patients.

[11] = tested on: bone marrow cells of 8 AZA-resistant patients; assay: XTT cell metabolism assay on bone marrow cells of AZA-resistant patients; format: cell-based, human; conditions: 1 mM Acadesine
Experimental: For this experiment, bone marrow cells of 8 AZA-resistant patients were treated with 1 μM Azacitidine or 1 mM Acadesine. Cell metabolism was assessed using the XTT assay. Results represent the mean+/−SEM of three independent experiments achieved in quadruplicates.
as §9, §10

[12] = tested on: AZA-resistant patient bone marrow cells; assay: LC3 I / LC3 II western blot on AZA-resistant patient bone marrow cells; format: cell-based, human; conditions: one Azacitidine resistant patient, 1 mM Acadesine, 24 h
Experimental: In this experiment LC3 I and LC3 II expression was assessed by Western-Blot on cell extracts prepared from AZA-resistant patient bone marrow cells incubated for 24 h with 1 mM Acadesine.
as §10

[13] = tested on: AZA-R SKM1 cells; assay: cells; format: cell-based; conditions: Homo sapiens
Experimental: as §8
FIGS. 10 and 11 illustrate the efficacy of acadesine in AZA-S and AZA-R cells. […] For this experiment, AZA-S SKM1 cells were incubated for 24 h with 1 μM Azacitidine or 1 mM Acadesine in either the presence or the absence of 50 μM Z-VAD-fmk. Cell metabolism was assessed using the XTT assay. Results represent the mean+/−SEM of three independent experiments achieved in quadruplicates. […] For this experiment, AZA-R SKM1 cells were incubated for 24 h with 1 μM Azacitidine or 1 mM Acadesine in either the presence or the absence of 50 μM Z-VAD-fmk. Cell metabolism was assessed using the XTT assay. Results represent the mean+/−SEM of three independent experiments achieved in quadruplicates. […]
For the cell metabolism assessment, 15×10^3 cells were incubated in a 96-well plate for different times with various concentrations of Azacitidine in a final volume of 100 μL. […] The absorbance of the formazan product, reflecting cell metabolism, was measured at 490 nM. […]

Structure (SMILES): Nc1ncn([C@@H]2O[C@H](CO)[C@@H](O)[C@H]2O)c(=O)n1 [Azacitidine]
- ribosomal protein S6 phosphorylation (index of mTOR inhibition) [1]: inhibition of ribosomal protein S6 phosphorylation
- LC3-II accumulation (autophagy) ([1]; increasing times): time-dependent accumulation of LC3-II
- Cathepsin B activity [2]: induces
- caspase 3 activation (hydrolysis of Ac-DEVD-AMC) ([3]; 1 μM Azacitidine): no caspase activities was induced
- caspase 9 activation (hydrolysis of LEHD-AMC) ([3]; 1 μM Azacitidine): no caspase activities was induced
- caspase 3 activity (Ac-DEVD-AMC) ([3]; 1 μM Azacitidine, 24 h): no increase
- cell metabolism (XTT) ([4]; 1 μM Azacitidine): efficiently reduced cell metabolism
- inhibitory effect on cell metabolism in presence of Z-VAD-fmk ([4]; 1 μM Azacitidine): reverted by Z-VAD-fmk
- Cathepsin B activity ([5]; 1 μM AZA, increasing times): increased
- cleavage of PARP (western blot) [6]: no AZA-mediated cleavage of PARP was detected
- caspase 3 activation (hydrolysis of Ac-DEVD-AMC) ([7]; 1 μM Azacitidine, 8-16 h): induced
- caspase 9 activation (hydrolysis of LEHD-AMC) ([7]; 1 μM Azacitidine, 8-16 h): induced
- caspase 3 activity (Ac-DEVD-AMC) ([7]; 1 μM Azacitidine, 24 h): induced caspase 3 activity
- ribosomal protein S6 phosphorylation (index of mTOR inhibition) [8]: inhibition of ribosomal protein S6 phosphorylation
- LC3-II accumulation (autophagy) ([8]; increasing times): not further stimulated
- proportion of patients refractory [9]: approximately 40%

Structure (SMILES): NC(=O)c1ncn([C@@H]2O[C@H](CO)[C@@H](O)[C@H]2O)c1N [Acadesine, acadesine]
- cell metabolism (XTT) [10]: inhibits cell metabolism
- cell metabolism (XTT) [11]: strongly inhibits cell metabolism
- induction of autophagy (conversion of LC3-I into LC3-II) [12]: induction of autophagy by Acadesine was confirmed
- apoptosis (caspase activity, Ac-DEVD-AMC) ([3]; 1 mM ACA, 24 h): does not induce apoptosis
- cell metabolism (XTT) ([4]; 1 mM Acadesine): drastically inhibited cell metabolism
- inhibitory effect on cell metabolism in presence of Z-VAD-fmk ([4]; 1 mM Acadesine): independently of caspases
- IC50 ([4]; Homo sapiens, SKM-1, 24 h, XTT assay, read-out: half-maximal inhibition of cell metabolism): 250 µM
- Cathepsin B activity ([5]; 1 mM ACA, 24 h): increase of Cathepsin B activity
- apoptosis (caspase activity, Ac-DEVD-AMC) ([7]; 1 mM ACA, 24 h): does not induce apoptosis
- cytotoxicity at 1000 µM ([13]; SKM-1, 24 h, read-out: reduction of cell viability): 60%
- IC50 ([13]; SKM-1, AZA-R SKM1 cells, 24 h, XTT assay, read-out: half-maximal inhibition of cell metabolism): 250 µM
